Assay results from ChEMBL document CHEMBL1158345, “Fragment and knowledge-based design of selective GSK-3beta inhibitors using virtual screening models” (Eur J Med Chem, 2009).

The molecules below were run against Glycogen synthase kinase-3 beta (Homo sapiens, UniProt P49841).
Sequence of Glycogen synthase kinase-3 beta (P49841 whole entry): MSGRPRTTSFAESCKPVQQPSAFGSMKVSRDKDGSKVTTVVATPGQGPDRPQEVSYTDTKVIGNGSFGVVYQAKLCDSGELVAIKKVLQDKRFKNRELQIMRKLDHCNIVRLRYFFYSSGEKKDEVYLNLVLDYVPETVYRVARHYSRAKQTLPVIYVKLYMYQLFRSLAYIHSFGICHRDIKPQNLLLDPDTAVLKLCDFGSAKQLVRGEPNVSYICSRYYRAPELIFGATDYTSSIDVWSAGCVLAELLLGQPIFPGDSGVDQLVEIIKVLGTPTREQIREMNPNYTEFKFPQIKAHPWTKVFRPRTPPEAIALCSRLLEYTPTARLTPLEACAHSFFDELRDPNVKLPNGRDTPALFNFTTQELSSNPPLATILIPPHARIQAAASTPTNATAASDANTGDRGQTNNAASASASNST
Description: Inhibition of human GSK3-beta

Question: How did the IC50 turn out when `Nc1nc(Nc2ccccc2)sc1C(=O)C1CC1` was run?
Answer: 2400 nM

Question: Which Ki does the source give for `O=[N+]([O-])c1ccc(NCCNc2ncc(-c3ncc[nH]3)c(-c3ccc(Cl)cc3Cl)n2)nc1` here?
Answer: 0.09 nM

Question: `COc1cc(C2=C(c3cn(CCN4CCN(C)CC4)c4ccccc34)C(=O)NC2=O)c2occc2c1` was tested. Which IC50 did it give?
Answer: 0.14 nM

Question: With `Cn1cc(-c2cc(-c3nc4ccccc4[nH]3)c(=O)[nH]n2)ccc1=O` as the molecule, how does the IC50 read?
Answer: 160 nM

Question: With `Cn1cc(C2=C(c3cn(CCCSC(=N)N)c4ccccc34)C(=O)NC2=O)c2ccccc21` [BISINDOLYLMALEIMIDE IX] as the molecule, how does the IC50 read?
Answer: 2.8 nM

Question: `Cn1cc(C2=C(c3cc(Cl)ccc3Cl)C(=O)NC2=O)c2ccccc21` was tested. Which IC50 did it give?
Answer: 7 nM
